Experimental data: patent US20230018014A1, “NOVEL COMPOUNDS AND FORMULATIONS” (PRO-AL MEDICO-TECHNOLOGIES, INC., priority 2019, published 2023)

Experiments:
[1] = test system: T3-induced cells (HS5) and PC12 neuronal cells; test: LDH release assay in T3-induced cells (HS5) and PC12 neuronal cells under hypoxia (Example 6); assay type: cell-based; details: hypoxia 24 hours; Epinephrine 0.5 μM
Procedure: (§1) The cells were then cultured under hypoxia for 24 hours. Results using ATP-bioluminescence and LDH release assays.

[2] = test system: T3-induced cells (HS5) and PC12 neuronal cells; test: ATP-bioluminescence in T3-induced cells (HS5) and PC12 neuronal cells under hypoxia (Example 6); assay type: cell-based; details: hypoxia 24 hours; Epinephrine 0.5 μM
Procedure: as §1

[3] = test system: Neuron-Specific Enolase (NSE); test: Neuron-Specific Enolase ELISA in pig blood plasma after cardiac arrest and resuscitation; assay type: in vivo; details: 2 hours post-ROSC
Procedure: The blood samples were collected from pigs subjected to cardiac arrest and resuscitation as described in Example 7. […] At 2 hours post-ROSC, blood samples were collected from a peripheral vein into tubes with EDTA and centrifuged for 15 minutes. The plasma samples were then used for the NSE assay based on the manufacturer's instructions.

[4] = test system: neonatal cardiomyocytes; test: cardiac Troponin T levels by flow cytometry in neonatal cardiomyocytes under hypoxia; assay type: cell-based; details: 4% oxygen, 5% CO2, 37° C., 24 hours
Procedure: (§2) This study aimed to investigate the positive protective role of T3, T3 nanoparticles and nanoparticles of T3 and phosphocreatine (PCR) in hypoxia-mediated cardiac cell insults, as well as its influences on vascularization and neuronal protection, under hypoxic condition. […] Mitochondrial function and sarcomere integrity were studied using an ATP-bioluminescence assay, and cardiac Troponin T levels using flow cytometry, respectively.
(§3) The cells were cultured in a hypoxia incubator with 4% oxygen, 5% CO2 at 37° C. for 24 hours. Following incubation, the cells were collected and compared with those of normal condition. Mitochondrial function and sarcomere integrity were studied using an ATP-bioluminescence assay, and cardiac Troponin T levels using flow cytometry after adding troponin T antibody conjugated with FITC.

[5] = test system: neonatal cardiomyocytes; test: ATP-bioluminescence assay in isolated neonatal cardiomyocytes under hypoxia; assay type: cell-based; details: 4% oxygen, 5% CO2, 37° C., 24 hours
Procedure: as §2, §3

[6] = test system: swine; test: porcine cardiac arrest model; assay type: in vivo
Procedure: In this study, swine were subjected to 7 minutes of cardiac arrest followed by manual CPR for up to 20 minutes with defibrillation every 2 minutes as necessary. […] In animals that achieved ROSC (unassisted systolic BP>80 mmHg for 1 min), further pharmacologic support was limited to 1 additional dose of the selected drug for hypotension. Hemodynamics, left ventricular (LV) function, plasma cardiac troponin I (cTnl) and other parameters were assessed at baseline and for up to 4 hours post-ROSC.

[7] = test system: neonatal cardiomyocytes; test: neonatal cardiomyocyte contraction under normoxic and hypoxic condition; assay type: cell-based
[8] = test system: chick embryo chorioallantoic membrane (CAM); test: chick embryo chorioallantoic membrane (CAM) angiogenesis model; assay type: in vivo
Text: as §2

[9] = within the first 5 minutes post-ROSC

CNC[C@H](O)c1ccc(O)c(O)c1 [Epinephrine]
LDH levels (in words) [1]: showed an increase | ATP levels (in words) [2]: increased slightly | increase of NSE over baseline [3]: 64% | Troponin T levels (in words) [4]: close to untreated hypoxic cardiomyocytes | cardiac ATP levels (in words) [5]: close to untreated hypoxic cardiomyocytes | higher concentration of cTnl ([6]; post-ROSC, versus the nanoparticle groups): 2 fold | rate of ROSC (in words) ([6]; swine, 7 minutes of cardiac arrest, intravenous, nanoparticles 0.125 mg/kg, Epinephrine 0.015 mg/kg): higher | survival duration ([6]; swine, post-ROSC, up to 4 hours, nanoparticles 0.125 mg/kg, Epinephrine 0.015 mg/kg): 116 ± 26 min | coronary sinus PCO2 compared to vehicle (in words) [6, 9]: not | coronary sinus pH compared to vehicle (in words) [6, 9]: not | Contraction/min ([7]; hypoxia): 28 min⁻¹ | Rhythm ([7]; hypoxia): Irregular | Contraction/min ([7]; normoxia): 186 min⁻¹ | Rhythm ([7]; normoxia): Regular

N[C@@H](Cc1cc(I)c(Oc2ccc(O)c(I)c2)c(I)c1)C(=O)O [T3, triiodothyronine]
enhanced angiogenesis compared to the control group [8]: ~3 fold | Branch points (SEM) ([8]; 10 μg): 158.4 ± 5.5 | improvement in observed branch points in comparison with bFGF ([8]; T3 10 μg, Nano-T3 1 μg): 37% | contraction levels in cardiomyocytes (in words) ([7]; hypoxia): close to those of the cells under normal conditions

bFGF: basic fibroblast growth factor, positive comparator in the CAM model
Branch points (SEM) ([8]; bFGF, dose not given): 115.4 ± 3.2
